# Test results taken from ChEMBL document CHEMBL1926508, “Pharmacophore-based discovery of FXR agonists. Part I: Model development and experimental validation” (Bioorg Med Chem, 2011).
# The source made the active and inactive calls. The calls are words filed in the database; no cut-off is given here.
# What was measured:
# [1] = target: T1, Bile acid receptor (Mus musculus) (UniProt Q60641); experiment: Agonist activity at mouse FXR expressed in HEK293 cells co-expressing mouse RXRalpha and ECRE-luc up to 100 uM by luciferase reporter gene assay; format: functional, cell-based
# T1 sequence (whole entry): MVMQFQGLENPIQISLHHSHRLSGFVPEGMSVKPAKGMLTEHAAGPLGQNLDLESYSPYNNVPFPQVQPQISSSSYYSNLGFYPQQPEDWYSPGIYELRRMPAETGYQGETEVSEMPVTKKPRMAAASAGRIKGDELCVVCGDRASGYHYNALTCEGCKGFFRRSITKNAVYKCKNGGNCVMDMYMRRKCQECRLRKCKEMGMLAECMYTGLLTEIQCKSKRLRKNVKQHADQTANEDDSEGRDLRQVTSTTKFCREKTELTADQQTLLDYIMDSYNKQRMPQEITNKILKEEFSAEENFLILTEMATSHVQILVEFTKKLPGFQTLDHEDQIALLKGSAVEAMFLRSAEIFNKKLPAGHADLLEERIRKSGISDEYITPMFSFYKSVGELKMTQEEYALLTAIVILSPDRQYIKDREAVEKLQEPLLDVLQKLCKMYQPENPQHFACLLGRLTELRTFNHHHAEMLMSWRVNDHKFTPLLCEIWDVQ
# [2] = target: T1, Bile acid receptor (Mus musculus); experiment: Agonist activity at mouse FXR expressed in HEK293 cells co-expressing mouse RXRalpha and ECRE-luc by luciferase reporter gene assay; format: functional, cell-based
SMILES,Activity [1],Activity [2]
C[C@]12CC[C@H]3[C@@H](CCC4CC(=O)/C(=C\C(F)(F)F)C[C@@]43C)[C@@H]1CC[C@@H]2C(=O)O (stereo partly drawn),inactive,
COc1ccc(N2CCN(C[C@H](O)COc3cc4c(c5c3CCCC5)CCCC4)CC2)cc1,,Dose-dependent effect
O=C(O)c1ccc(C(=O)c2ccc(C(=O)c3ccc(C(=O)O)cc3)cc2)cc1,inactive,
O=C(O)c1cnc2cc(OCCOc3ccc(F)cc3)ccc2c1O,inactive,

# More lines, now with the values ahead:
Activity [1],Activity [2],SMILES
inactive,,COc1ccc(/C(C)=N/NC(=O)CC(=O)N(C(=O)c2ccccc2)c2ccc(C)cc2)cc1
inactive,,C1=C(c2ccc(OCc3ccccc3)c(OCc3ccccc3)c2)CC2CCCCC2C1 (stereo not drawn)
,Dose-dependent effect,CCCCc1ccc([C@@H](CC(=O)c2ccccc2)c2ccccc2)cc1
inactive,,Cc1cc(C(=O)CCCCCCCCC(=O)O)ccc1O
